The record followed here is patent US12655169B2, “Arabinose and preparation and use thereof” (THOMSON BIOTECH (XIAMEN) PTE. LTD., priority 2022, dated 2026).

Like-named read-outs stand apart in the source and are kept apart here.

Format in all cases: physicochemical
The nature of data set [1]: Particle size parameter test (BT-2900 image particle size analysis system). To be noted: quantity distribution, image particle size analysis. The source says: (§1) Example 4. Particle Size Parameters and Powder Characteristics (Quantity Distribution) of L-Arabinose
Data set [2] in a line: Flowability test (particle and powder characteristic analyzer, FT-102D).
Source text: as §1
Example 13. Performance Test Results for the Granules of the Present Disclosure

Data set [3] in a line: Granularity distribution of sample (standard sieve). To be noted: for Granularity distribution of sample (standard sieve) 20-80 mesh / Granularity distribution of sample (standard sieve) <80 mesh / Granularity distribution of sample (standard sieve) >20 mesh: Example 8 samples, seed crystal specification and fed-batch time varied. As for the experimental part:
1 kg of L-arabinose starting material was dissolved in 1.2 kg of purified water at 60° C. After the solution was completely clear, 1 g of activated carbon ([…] of the L-arabinose) was added. The mixture was incubated at 60° C. for 30 min and then subjected to suction filtration under vacuum successively through 25 μm and 0.45 μm filter membranes to remove the activated carbon, and a clear filtered sugar liquid (about 1800 mL in volume) was obtained. About 800 mL of the clear filtered sugar liquid was added to a three-necked flask, and stirred and evaporated under reduced pressure in a water bath set at a temperature of 62° C. until the sugar degree reached 58-60% Brix. A proper amount of L-arabinose was added as seed crystals (as shown in Table 8-1 below, seed crystal with different specifications was selected: 40-60 mesh, 16.5 g; 60-80 mesh, 6 g; 80-100 mesh, 1.5 g). The mixture was stirred (double-layered type of stirring, with two-half-crescent type for the lower layer and three-bladed propeller type for the upper layer) at a rate of 90-110 rpm until the seed crystal was completely dispersed. Then the sugar liquid was added at a rate of 50-100 mL/h in a fed-batch manner for a time period of 12/18 h. After the fed-batch addition was completed, the concentrating was continued for 1-2 h. It was about 14 h from the time the seed crystal was added to the time of discharging.
According to the results shown in Table 8-1, the specific surface area of the seed crystal of 80-100 mesh is relatively […] compared with that of the seed crystal of other specifications (as shown in Table 8-2), but the particle size distribution of the sample obtained by experiment is relatively uniform: the proportion of 20-80 mesh is more than 89.7%, and the maximum proportion is more than 90%, which fully complies with the requirements of the existing pharmacopoeia (Chinese pharmacopoeia (2020)) for granules: granules cannot pass through a No. 1 sieve (10 mesh, 2000 μm) and the total quantity of granules which can pass through a No. 5 sieve (80 mesh, pore size of […]) should not exceed 15%.

[4] abbreviates: listed as Example 10 sample of batch 1ª.
The mark [5] stands for this setting: post-centrifugation sampling-manual material spreading and drying oven drying.
[6] abbreviates: screw feeding-back-mixing bed drying.
The mark [7] stands for this setting: listed as Example 10 sample of batch 2ª.

Consider `O[C@@H]1[C@@H](O)[C@@H](O)CO[C@H]1O` [Commercial product (T1)], for which, in data set [1], the Average particle size is 75 μm, the D10 was 27 μm, the D50 stood at 63 μm and the D90 is 137 μm. In data set [2], the Bulk density amounted to 0.55 g/mL, the Carr flowability index is recorded as 79, the Compressibility is 40.2% and the Floodability index worked out at 75. Also, in data set [2], the “Flowability (Hausner ratio)” value is listed as “Very poor”, the Hausner ratio turned out to be 1.7 and the Tap density amounted to 0.93 g/mL. Moreover, the Angle of repose in data set [2] (in ° (unit assumed)) was 51.05.
As for `O[C@@H]1[C@@H](O)[C@@H](O)CO[C@H]1O` [Commercial product (Y1)], in data set [1], the Average particle size is recorded as 33 μm, the D10 is listed as 11 μm, the D50 came out at 30 μm and the D90 was found to be 63 μm. Moreover, in data set [2], the Bulk density stood at 0.5 g/mL, the Carr flowability index was found to be 79, the Compressibility came to 41.4% and the Floodability index is on record as 75. Further, in data set [2], the “Flowability (Hausner ratio)” value is reported as “Very poor”, the Hausner ratio is on record as 1.7 and the Tap density came out at 0.85 g/mL. Further, in data set [2] (in ° (unit assumed)), the Angle of repose was 51.73.
Take `O=C[C@H](O)[C@@H](O)[C@@H](O)CO` [Example 2, L-arabinose]: in data set [1], the Average particle size was 189 μm, the D10 is on record as 82 μm, the D50 is recorded as 182 μm and the D90 amounted to 299 μm. In data set [2], this compound yielded an Angle of repose of 38.95, a Bulk density of 0.6, a Carr flowability index of 102.5 and a Compressibility of 20.6. In data set [2], the Floodability index is given as 75.0, the “Flowability (Hausner ratio)” value is “Good”, the Hausner ratio was found to be 1.3 and the Tap density stood at 0.76. Besides, in data set [3], the “Granularity distribution of sample (standard sieve) 20-80 mesh” value came to 61, the “Granularity distribution of sample (standard sieve) <80 mesh” value came to 1 and the “Granularity distribution of sample (standard sieve) >20 mesh” value is given as 38.
Turning to `O=C[C@H](O)[C@@H](O)[C@@H](O)CO` [Example 3, L-arabinose], in data set [1], the Average particle size turned out to be 125 μm, the D10 was 43 μm, the D50 was determined as 109 μm and the D90 is reported as 232 μm. In data set [2], the Angle of repose came to 38.76, the Bulk density is given as 0.56, the Carr flowability index is given as 99 and the Compressibility came out at 24.3. In data set [2], the Floodability index is 75.0, the “Flowability (Hausner ratio)” value is “Good”, the Hausner ratio came to 1.2 and the Tap density was found to be 0.74. For the same compound, in data set [3], the “Granularity distribution of sample (standard sieve) 20-80 mesh” value is given as 81.6, the “Granularity distribution of sample (standard sieve) <80 mesh” value is given as 1.5 and the “Granularity distribution of sample (standard sieve) >20 mesh” value is 16.9.
Regarding `O=C[C@H](O)[C@@H](O)[C@@H](O)CO` [Example 10 Sample of batch 1^b, L-arabinose], in data set [1], the Average particle size came out at 182 μm, the D10 was determined as 78 μm, the D50 is given as 174 μm and the D90 is reported as 296 μm.
Turning to `O=C[C@H](O)[C@@H](O)[C@@H](O)CO` [Example 10 Sample of batch 2^b, L-arabinose], in data set [1], the Average particle size is 189 μm, the D10 is recorded as 79 μm, the D50 is reported as 168 μm and the D90 came out at 331 μm.
With `O=C[C@H](O)[C@@H](O)[C@@H](O)CO` [Example 10 batch 1, L-arabinose], in data set [1] (setting [4]), the Average particle size worked out at 134.5 μm, the D10 is recorded as 48.4 μm, the D50 turned out to be 125.1 μm and the D90 is 230.6 μm. In data set [2], this compound returned an Angle of repose of 40.01, a Bulk density of 0.7, a Compressibility of 17.1 and a Floodability index of 75.0. Further, in data set [2], the “Flowability (Hausner ratio)” value is “Good”, the Hausner ratio was 1.2 and the Tap density came out at 0.85. Also, the “20-80 mesh proportion of sample” value in data set [3] (setting [5]) is 93.0%. Moreover, the “20-80 mesh proportion of sample” value in data set [3] (setting [6]) stood at 66.4%.
Take `O=C[C@H](O)[C@@H](O)[C@@H](O)CO` [Example 10 batch 2, L-arabinose]: in data set [1] (setting [7]), the Average particle size amounted to 129.2 μm, the D10 was determined as 41.88 μm, the D50 amounted to 116.4 μm and the D90 was 237.9 μm. In data set [2], this compound returned an Angle of repose of 30.95, a Bulk density of 0.68, a Carr flowability index of 102.5 and a Compressibility of 15.9. In addition, in data set [2], the Floodability index was found to be 75.0, the “Flowability (Hausner ratio)” value was “Good”, the Hausner ratio worked out at 1.2 and the Tap density is 0.81. Moreover, the “20-80 mesh proportion of sample” value in data set [3] (setting [5]) was 96.4%. Also, in data set [3] (setting [6]), the “20-80 mesh proportion of sample” value was 79.8%.
In data set [1], `O=C[C@H](O)[C@@H](O)[C@@H](O)CO` [Example 11, L-arabinose] yielded an Average particle size of 148.8 μm, a D10 of 164.8 μm, a D50 of 288.1 μm and a D90 of 448.8 μm. In data set [2], this compound displayed an Angle of repose of 34.29, a Bulk density of 0.5, a Carr flowability index of 102.0 and a Compressibility of 23.1. In data set [2], the Floodability index was determined as 75.0, the “Flowability (Hausner ratio)” value is given as “Acceptable”, the Hausner ratio is reported as 1.3 and the Tap density stood at 0.65. Besides, the “20-80 mesh proportion of sample” value in data set [3] (setting [5]) was determined as 90.6%.
In the case of `O=C[C@H](O)[C@@H](O)[C@@H](O)CO` [Example 12, L-arabinose], in data set [1], the Average particle size was 185.5 μm, the D10 amounted to 175.1 μm, the D50 is given as 305.2 μm and the D90 is 481.8 μm. In addition, in data set [2], the Angle of repose is 39.74, the Bulk density worked out at 0.48, the Carr flowability index was determined as 99 and the Compressibility was 24.4. Further, in data set [2], the Floodability index is reported as 75.0, the “Flowability (Hausner ratio)” value is “Good”, the Hausner ratio stood at 1.3 and the Tap density amounted to 0.64. Also, the “20-80 mesh proportion of sample” value in data set [3] (setting [5]) stood at 93.57%.
Turning to `O=C[C@H](O)[C@@H](O)[C@@H](O)CO` [Example 14, L-arabinose], the results for the “20-80 mesh proportion of sample” value in data set [3] (setting [5]) and in data set [3] (star valve unloading-back-mixing bed drying) were 94.3% and 89%, respectively.
`O[C@@H]1[C@@H](O)[C@@H](O)CO[C@H]1O` [No. 5]: in data set [3], the Granularity distribution of sample (standard sieve) 20-80 mesh turned out to be 89.7%, the Granularity distribution of sample (standard sieve) <80 mesh was 3% and the Granularity distribution of sample (standard sieve) >20 mesh came out at 7.3%.
